The values below come from patent US20140142333A1, “NOVEL ANILINE DERIVATIVES AND USE THEREOF” (NEOMICS Co, Ltd., priority 2011, published 2014).

Test [1] concerns the target T1, AIMP2-DX2 (Homo sapiens, UniProt Q13155).
T1 sequence (Q13155 1-251 isoform Q13155-2): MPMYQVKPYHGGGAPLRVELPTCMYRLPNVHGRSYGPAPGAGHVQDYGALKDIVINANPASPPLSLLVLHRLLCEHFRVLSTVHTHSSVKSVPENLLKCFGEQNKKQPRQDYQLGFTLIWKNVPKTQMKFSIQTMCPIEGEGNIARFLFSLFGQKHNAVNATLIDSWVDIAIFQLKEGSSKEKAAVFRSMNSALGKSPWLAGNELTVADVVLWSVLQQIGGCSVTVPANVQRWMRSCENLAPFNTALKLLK
As to the kind of experiment: luciferase assay of pGL-DX-2 transfected H460 cells. The note with it: luciferase activity 4 hours after compound treatment; N.C (DMSO) 8627; lower = inhibition.
Description: In order to screen for a compound specifically inhibiting the activity of AIMP2-DX2, from a compound library bought from ChemDive (US), the inventors' transfected lung cancer cell line, H460, with pGL2-DX2 (see FIG. 2). After culturing the cell line for 24 hours, they treated it with a compound. Then, after further culturing for 4 hours, luciferase activity was measured through a luciferase assay kit according to a manufacturer protocol (Promega, US), by using a luminometer.
After further culturing for 4 hours, luciferase activity was measured.

Test [2] addresses T1, AIMP2-DX2. As to the kind of experiment: luciferase assay of pGL-DX-2 transfected A549 cells. The note with it: luciferase activity 4 hours after compound treatment; N.C (DMSO) 20089; lower = inhibition.

Consider `Cc1ccc(NC(=O)/C=C/C(=O)Nc2ccc(C)c(C)c2)cc1C` [compound 1, N1,N4-bis(3,4-dimethylphenyl)fumaramide], for which the “AIMP2-DX2 activity in H460 cells” value in test [1] was found to be 7101. Further, in test [2], the “AIMP2-DX2 activity in A549 cells” value is given as 14179.

On to `Cc1cccc(NC(=O)/C=C/C(=O)Nc2cccc(C)c2)c1` [compound 2, N1,N4-di-m-tolylfumaramide], for which the “AIMP2-DX2 activity in H460 cells” value in test [1] was found to be 7292. Also, the “AIMP2-DX2 activity in A549 cells” value in test [2] came to 14072.

On to `Cc1ccc(C)c(NC(=O)/C=C\C(=O)Nc2ccc(C)c(C)c2)c1` [compound 3, N1-(2,5-dimethylphenyl)-N4-(3,4-dimethylphenyl)maleamide], for which the “AIMP2-DX2 activity in H460 cells” value in test [1] stood at 7749. Besides, the “AIMP2-DX2 activity in A549 cells” value in test [2] was 10043.

Turning to `Cc1cccc(NC(=O)/C=C\C(=O)Nc2cccc(C)c2)c1` [compound 4, N1,N4-di-m-tolylmaleamide], the “AIMP2-DX2 activity in H460 cells” value in test [1] came out at 8189. For the same compound, the “AIMP2-DX2 activity in A549 cells” value in test [2] is listed as 9605.

For the compound `Cc1ccc(NC(=O)/C=C\C(=O)Nc2ccc(F)cc2C)cc1C` [compound 5, N1-(3,4-dimethylphenyl)-N4-(4-fluoro-2-methylphenyl)maleamide], in test [1], the “AIMP2-DX2 activity in H460 cells” value worked out at 7427. Moreover, the “AIMP2-DX2 activity in A549 cells” value in test [2] stood at 9643.

`Cc1ccc(NC(=O)/C=C\C(=O)Nc2ccc(C)c(F)c2)cc1C` [compound 6, N1-(3,4-dimethylphenyl)-N4-(3-fluoro-4-methylphenyl)maleamide]: the “AIMP2-DX2 activity in H460 cells” value in test [1] stood at 8901. Further, in test [2], the “AIMP2-DX2 activity in A549 cells” value was 10551.

Regarding `Cc1ccc(NC(=O)/C=C\C(=O)Nc2cc(Cl)cc(Cl)c2)cc1C` [compound 7, N1-(3,5-dichlorophenyl)-N4-(3,4-dimethylphenyl)maleamide], the “AIMP2-DX2 activity in H460 cells” value in test [1] is given as 5019. Also, the “AIMP2-DX2 activity in A549 cells” value in test [2] is listed as 8268.

With `Cc1ccc(C)c(NC(=O)/C=C\C(=O)O)c1` [compound 8, (Z)-4-[(2,5-dimethylphenyl)amino]-4-oxobut-2-enoic acid], the “AIMP2-DX2 activity in H460 cells” value in test [1] is 7648. Besides, the “AIMP2-DX2 activity in A549 cells” value in test [2] worked out at 6705.

On to `Cc1cc(C)cc(NC(=O)/C=C\C(=O)O)c1` [compound 9, (Z)-4-[(3,5-dimethylphenyl)amino]-4-oxobut-2-enoic acid], for which the “AIMP2-DX2 activity in H460 cells” value in test [1] is on record as 7064. Also, in test [2], the “AIMP2-DX2 activity in A549 cells” value amounted to 6786.

For `CCCCc1ccc(NC(=O)/C=C\C(=O)O)cc1` [compound 10, (Z)-4-[(4-butylphenyl)amino]-4-oxobut-2-enoic acid], in test [1], the “AIMP2-DX2 activity in H460 cells” value worked out at 8045. The “AIMP2-DX2 activity in A549 cells” value in test [2] stood at 12399.

Turning to `Cc1cccc(NC(=O)/C=C\C(=O)O)c1` [compound 11, (Z)-4-oxo-4-(m-tolylamino) but-2-enoic acid], the “AIMP2-DX2 activity in H460 cells” value in test [1] came out at 7143. The “AIMP2-DX2 activity in A549 cells” value in test [2] was determined as 6328.

As to `O=C(O)/C=C\C(=O)Nc1ccc(F)cc1` [compound 12, (Z)-4-[(4-fluorophenyl)amino]-4-oxobut-2-enoic acid], the “AIMP2-DX2 activity in H460 cells” value in test [1] is recorded as 7031. The “AIMP2-DX2 activity in A549 cells” value in test [2] was determined as 7937.

`O=C(O)/C=C\C(=O)Nc1cc(Cl)cc(Cl)c1` [compound 13, (Z)-4-[(3,5-dichlorophenyl)amino]-4-oxobut-2-enoic acid]: the “AIMP2-DX2 activity in H460 cells” value in test [1] is recorded as 7855. Also, the “AIMP2-DX2 activity in A549 cells” value in test [2] is on record as 8049.

As for `Cc1cc(Cl)cc(Cl)c1NC(=O)/C=C\C(=O)O` [compound 14, (Z)-4-[(2,4-dichloro-6-methylphenyl)amino]-4-oxobut-2-enoic acid], in test [1], the “AIMP2-DX2 activity in H460 cells” value is listed as 230. In addition, in test [2], the “AIMP2-DX2 activity in A549 cells” value stood at 240.

In the case of `Cc1cc(C)cc(NC(=O)/C=C\C(=O)Nc2ccc(C)c(C)c2)c1` [compound 15, N1-(3,4-dimethylphenyl)-N4-(3,5-dimethylphenyl)maleamide], the “AIMP2-DX2 activity in H460 cells” value in test [1] is reported as 8621. Further, in test [2], the “AIMP2-DX2 activity in A549 cells” value was 6981.
